Data: patent US6500840B2, “Quinuclidine-substituted heteroaryl moieties for treatment of disease” (Pharmacia & Upjohn Company, priority 2000, dated 2002)
Structures can show the parent of a compound that is named as a salt.

Legend:
[1] = biological target: α7 nAChR (Homo sapiens, UniProt P36544); settings: cited from earlier work
[2] = biological target: T1, 5HT3R (Homo sapiens, UniProt P46098); settings: cited from earlier work
T1 sequence (P46098 24-478): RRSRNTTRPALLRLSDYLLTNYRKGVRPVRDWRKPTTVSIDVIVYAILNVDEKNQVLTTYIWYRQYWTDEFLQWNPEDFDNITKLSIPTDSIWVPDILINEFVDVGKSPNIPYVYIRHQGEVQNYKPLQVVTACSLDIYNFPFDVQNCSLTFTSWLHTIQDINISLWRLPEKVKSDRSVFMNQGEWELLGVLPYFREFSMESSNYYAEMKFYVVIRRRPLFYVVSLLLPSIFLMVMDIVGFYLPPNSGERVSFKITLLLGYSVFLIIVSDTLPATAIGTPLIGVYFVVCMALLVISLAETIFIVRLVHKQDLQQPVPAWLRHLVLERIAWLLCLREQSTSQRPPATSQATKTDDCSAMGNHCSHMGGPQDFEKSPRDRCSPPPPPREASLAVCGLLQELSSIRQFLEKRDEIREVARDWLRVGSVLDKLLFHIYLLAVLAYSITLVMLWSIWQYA

[3] = biological target: α7 nAChR (Rattus norvegicus, UniProt Q05941); assay: [3H]-MLA competition binding assay, rat brain membranes; settings: Ki, inhibition of [3H]-MLA binding (3.0 to 4.0 nM), Sprague-Dawley rat whole brain minus cerebellum homogenate, 1 hour at 25° C
α7 nAChR (Rattus norvegicus, UniProt Q05941), sequence (Q05941 23-502): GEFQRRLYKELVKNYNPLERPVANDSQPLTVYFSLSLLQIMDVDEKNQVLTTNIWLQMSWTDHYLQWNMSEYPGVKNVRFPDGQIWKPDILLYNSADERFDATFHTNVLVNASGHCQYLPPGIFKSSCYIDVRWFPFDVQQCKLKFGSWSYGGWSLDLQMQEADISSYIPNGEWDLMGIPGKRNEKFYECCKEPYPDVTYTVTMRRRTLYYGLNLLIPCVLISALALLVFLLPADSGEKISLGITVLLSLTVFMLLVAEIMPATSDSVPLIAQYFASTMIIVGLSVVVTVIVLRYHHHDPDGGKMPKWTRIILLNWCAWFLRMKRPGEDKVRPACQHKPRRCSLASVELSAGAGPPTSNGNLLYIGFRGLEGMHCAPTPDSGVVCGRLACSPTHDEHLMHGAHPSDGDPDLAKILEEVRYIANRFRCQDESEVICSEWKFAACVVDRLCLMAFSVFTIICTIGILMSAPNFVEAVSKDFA
Experimental: Membrane Preparation. Male Sprague-Dawley rats (300-350 g) are sacrificed by decapitation and the brains (whole brain minus cerebellum) are dissected quickly, weighed and homogenized in 9 volumes/g wet weight of ice-cold 0.32 M sucrose using a rotating pestle on setting 50 (10 up and down strokes). The homogenate is centrifuged at 1,000×g for 10 minutes at 4° C. The supernatant is collected and centrifuged at 20,000×g for 20 minutes at 4° C. The resulting pellet is resuspended to a protein concentration of 1-8 mg/mL. Aliquots of 5 mL homogenate are frozen at −80° C. until needed for the assay.
Binding Assay. […] Filters are pre-soaked in 50 mm Tris HCl pH 7.0-0.05% polyethylenimine. The filters are rapidly washed two times with 5 mL aliquots of cold 0.9% saline and then counted for radioactivity by liquid
Data Analysis. […] Hill coefficients were obtained using non-linear regression (GraphPad Prism sigmoidal dose-response with variable slope).

α7 nAChR (Homo sapiens, UniProt P36544), sequence (P36544 23-502): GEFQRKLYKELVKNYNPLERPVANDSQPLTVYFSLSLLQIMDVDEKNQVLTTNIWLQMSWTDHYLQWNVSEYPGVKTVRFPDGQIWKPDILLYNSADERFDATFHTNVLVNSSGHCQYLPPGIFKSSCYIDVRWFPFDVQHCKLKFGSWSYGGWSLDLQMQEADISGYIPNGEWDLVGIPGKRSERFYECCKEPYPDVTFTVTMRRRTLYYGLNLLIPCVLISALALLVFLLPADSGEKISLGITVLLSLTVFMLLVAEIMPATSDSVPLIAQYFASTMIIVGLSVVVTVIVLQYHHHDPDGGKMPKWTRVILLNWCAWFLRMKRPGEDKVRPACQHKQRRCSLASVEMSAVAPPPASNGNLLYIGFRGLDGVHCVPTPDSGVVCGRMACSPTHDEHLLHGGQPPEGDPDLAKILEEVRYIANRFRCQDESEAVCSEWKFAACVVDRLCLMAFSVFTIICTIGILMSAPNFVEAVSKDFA

Row | Structure (SMILES) | Ki [3] [nM] | also measured
1 | Cc1nccn1CC1CCc2c(c3ccccc3n2C)C1=O (stereo not drawn) [Ondansetron] |  | activity at the α7 nAChR [1]: little activity
2 | COc1ccc(/C=C2\CCCN=C2c2cccnc2)c(OC)c1 [GTS-21] |  | activity at the 5HT3R [2]: little activity
3 | O=C(N[C@H]1CN2CCC1CC2)c1ncc(-c2cccc(Cl)c2)o1 [Example 79, N-[(3R)-1-Azabicyclo[2.2.2]oct-3-yl]-5-(3-chlorophenyl)-1,3-oxazole-2-carboxamide 4-Methylbenzenesulfonate] | 20 to 75 | 
4 | O=C(N[C@H]1CN2CCC1CC2)c1ccc(-c2cc(F)ccc2F)o1 [Example 117, N-[(3R)-1-azabicyclo[2.2.2]oct-3-yl]-5-(2,5-difluorophenyl)-furan-2-carboxamide hydrochloride] | 1860 | 
5 | CSc1ccc(C(=O)N[C@H]2CN3CCC2CC3)s1 [Example 22, N-[(3R)-1-Azabicyclo[2.2.2]oct-3-yl]-5-(methylsulfanyl)-thiophene-2-carboxamide] | 1 to 6 | 
6 | O=C(N[C@H]1CN2CCC1CC2)c1ccc(-c2cccc([N+](=O)[O-])c2)s1 [Example 7, N-[(3R)-1-azabicyclo[2.2.2]oct-3-yl]-5-(3-nitrophenyl)-thiophene-2-carboxamide] | 25 to 30 | 
7 | O=C(N[C@H]1CN2CCC1CC2)c1ccc(-c2ccsc2)s1 [Example 5, N-[(3R)-1-azabicyclo[2.2.2]oct-3-yl]-2,3′-bithiophene-5-carboxamide hydrochloride] | 9 to 15 | 
8 | O=C(N[C@H]1CN2CCC1CC2)c1ncc(-c2cccc(Cl)c2)s1 [Example 99, N-[(3R)-1-azabicyclo[2.2.2]oct-3-yl]-5-(3-chlorophenyl)-1,3-thiazole-2-carboxamide 4-methylbenzenesulfonate] | 310 to 325 | 
9 | O=C(N[C@H]1CN2CCC1CC2)c1ccc(Sc2ccc(Cl)cc2)s1 [Example 33, N-[(3R)-1-Azabicyclo[2.2.2]oct-3-yl]-5-(4-chlorophenylsulfanyl)-thiophene-2-carboxamide] | 27 | 
